Among the test systems are SK-MEL-2 melanoma; M14 melanoma; RPMI-8226 leukemia; SK-MEL-5 melanoma; MDA-MB-435; HS 578T breast; UACC-62 melanoma; ACHN renal; MDA-N; CAKI-1 renal; KM12 colon; UO-31 renal; TK-10 renal; NCI-H460 lung; 786-0 renal; IGROV1 ovarian; SN12C renal; MALME-3M melanoma; BT-549 breast; SF-268 CNS.
What all share (experiment): inhibition of tumour cell growth, NCI panel, 48 h

Molecules are shown by their SMILES.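 Dose response: 5 concentrations. Exposure: 48 h. Format: 96-well plates. Endpoint: linear interpolation; highest concentration if not reached. TGI is the concentration that stops growth completely.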

`CCOC(=O)CCC(NC(=O)c1ccc(Oc2nc3c(N)cc(C(F)(F)F)cc3nc2-c2ccccc2)cc1)C(=O)OCC` (stereo not given): the TGI was > 30.7 µM in the assay on SK-MEL-2 melanoma; > 100 µM with M14 melanoma; > 100 µM in the assay on RPMI-8226 leukemia; > 100 µM in the assay with SK-MEL-5 melanoma; > 100 µM with MDA-MB-435; > 72.8 µM in the assay on HS 578T breast. For the same molecule, the TGI was > 100 µM in the assay on UACC-62 melanoma; > 69.6 µM with ACHN renal; > 100 µM in the assay on MDA-N; 8.91 µM in the assay with CAKI-1 renal; > 100 µM in the assay on KM12 colon; > 100 µM in the assay with UO-31 renal. Besides, the TGI with TK-10 renal is > 100 µM; with NCI-H460 lung, > 100 µM; in the assay on 786-0 renal it was > 22 µM; with IGROV1 ovarian, > 100 µM; in the assay on SN12C renal, > 100 µM; in the assay with MALME-3M melanoma it was 91.9 µM. Further, the TGI was > 95 µM in the assay on BT-549 breast and > 71.2 µM in the assay with SF-268 CNS.
With `O=[N+]([O-])c1ccc2sc(/C=N/c3ccccn3)cc2c1`, the TGI with SK-MEL-2 melanoma was > 100 µM; in the assay with M14 melanoma it was > 100 µM; with RPMI-8226 leukemia, 88.9 µM; with SK-MEL-5 melanoma, > 100 µM; in the assay on MDA-MB-435, > 100 µM; with HS 578T breast, > 100 µM. Moreover, the TGI in the assay on UACC-62 melanoma, in the assay on ACHN renal, with MDA-N, in the assay with CAKI-1 renal, in the assay on KM12 colon and in the assay on UO-31 renal was > 100 µM throughout. In addition, the TGI with TK-10 renal, in the assay on NCI-H460 lung, in the assay with 786-0 renal, in the assay with IGROV1 ovarian, with SN12C renal and in the assay on MALME-3M melanoma was > 100 µM in each case. Also, the TGI in the assay on BT-549 breast was > 100 µM; in the assay with SF-268 CNS, 94 µM.
In the case of `Cc1cn(Cc2cccc(C3=NCCCN3)c2)c(=O)n(Cc2cccc(C3=NCCCN3)c2)c1=O`, the TGI with SK-MEL-2 melanoma, in the assay with M14 melanoma, with RPMI-8226 leukemia, in the assay on SK-MEL-5 melanoma, in the assay with MDA-MB-435 and in the assay with HS 578T breast was > 100 µM each time. Moreover, the TGI in the assay on UACC-62 melanoma, with ACHN renal, in the assay on MDA-N, in the assay with CAKI-1 renal, in the assay on KM12 colon and with UO-31 renal was > 100 µM throughout. Besides, the TGI with TK-10 renal, in the assay on NCI-H460 lung, in the assay with 786-0 renal, in the assay with IGROV1 ovarian, in the assay on SN12C renal and in the assay on MALME-3M melanoma was > 100 µM in each case. Also, the TGI in the assay on BT-549 breast and in the assay with SF-268 CNS was > 100 µM in each case.

(Values after PubChem BioAssay (NCI).)
